Results reported in patent EP0322396A1, “Benzimidazole derivatives, their preparation and use” (Gerot-Pharmazeutika Gesellschaft m.b.H., priority 1987, dated 1989).

Legend:
[1] = Tolerability (test not described); assay type: in vivo; conditions: compared with the reference Prazosin
Blutdruck der Ratte = assay: Blood pressure lowering in the rat after i.v. administration; assay type: in vivo; conditions: i.v. 1,0 mg/kg, after 3 hours, compared with Nifedipin and Verapamil at the same dose
in vivo = conditions: mouse, iv, Maus i.v.

SMILES	Verträglichkeit [1]	senkt den Blutdruck der Ratte (Blutdruck der Ratte)	LD50 (in vivo) [mg/kg]
CC(O)CC(=O)N1CCC(n2c(=O)[nH]c3ccccc32)CC1 (stereo not drawn) [Beispiel 1, 1-(3-Hydroxybutyryl)-4-(2-oxo-1-benzimidazolinyl)-piperidin]	wesentlich verträglicher als die Vergleichssubstanz	–	–
COC(=O)C1=C(C)NC(C)=C(C(=O)OCCCN2CCC(n3c(=O)[nH]c4ccccc43)CC2)C1c1cccc([N+](=O)[O-])c1 (stereo not drawn) [Beispiel 4, 2,6-Dimethyl-3-{3-(4-(2-oxo-1-benzimidazolinyl)-1-piperidino]-propyloxy-carbonyl}-4-(3-nitro-phenyl)-5-methoxycarbonyl-1,4-dihydropyridin]	–	noch stärker als Nifedipin oder Verapamil	128
